Assay results: US10709707B2, “Methods of treating ocular conditions” (Oyster Point Pharma, Inc., priority 2016, dated 2020)
“And” between values parts separate entries of the source, which are not always exact repeats. Equal values may be shown once. “Also recorded” adds a separate entry of the source. Read-outs that look alike come from different tables or passages of the source.

Experiments:
[1] = Ames test; type: cell-based; conditions: in vitro
Source text: (§1) Compound 1 was negative for mutagenicity in both in vitro bioassays—including an Ames test, a micronucleus test in mouse lymphoma cells, and a chromosome aberration assay using cultured human peripheral blood lymphocytes—and an in vivo rat bone marrow micronucleus test.

[2] = test system: Rabbit Purkinje fibers; test: Cardiovascular safety, rabbit Purkinje fibers in vitro
[3] = target: T1, a3b2 (Homo sapiens, UniProt P17787+P32297); test: Receptor function a3b2, Ca++ flux; type: cell-based
T1 construct: expressed in transfected cells
T1 sequence (P32297 32-505): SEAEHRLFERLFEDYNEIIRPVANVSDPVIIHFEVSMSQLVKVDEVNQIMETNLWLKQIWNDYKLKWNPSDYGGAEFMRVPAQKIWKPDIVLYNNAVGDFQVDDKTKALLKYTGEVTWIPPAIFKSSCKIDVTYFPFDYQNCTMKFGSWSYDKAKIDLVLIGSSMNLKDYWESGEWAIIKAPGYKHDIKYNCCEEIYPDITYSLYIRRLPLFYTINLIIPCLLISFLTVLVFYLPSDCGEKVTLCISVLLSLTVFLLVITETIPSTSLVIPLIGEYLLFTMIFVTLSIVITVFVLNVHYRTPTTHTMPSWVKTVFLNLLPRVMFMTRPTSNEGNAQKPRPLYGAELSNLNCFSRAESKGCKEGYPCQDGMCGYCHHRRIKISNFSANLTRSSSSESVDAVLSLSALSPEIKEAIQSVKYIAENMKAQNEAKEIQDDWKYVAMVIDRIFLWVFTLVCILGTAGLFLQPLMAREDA
T1 sequence (P17787 26-502): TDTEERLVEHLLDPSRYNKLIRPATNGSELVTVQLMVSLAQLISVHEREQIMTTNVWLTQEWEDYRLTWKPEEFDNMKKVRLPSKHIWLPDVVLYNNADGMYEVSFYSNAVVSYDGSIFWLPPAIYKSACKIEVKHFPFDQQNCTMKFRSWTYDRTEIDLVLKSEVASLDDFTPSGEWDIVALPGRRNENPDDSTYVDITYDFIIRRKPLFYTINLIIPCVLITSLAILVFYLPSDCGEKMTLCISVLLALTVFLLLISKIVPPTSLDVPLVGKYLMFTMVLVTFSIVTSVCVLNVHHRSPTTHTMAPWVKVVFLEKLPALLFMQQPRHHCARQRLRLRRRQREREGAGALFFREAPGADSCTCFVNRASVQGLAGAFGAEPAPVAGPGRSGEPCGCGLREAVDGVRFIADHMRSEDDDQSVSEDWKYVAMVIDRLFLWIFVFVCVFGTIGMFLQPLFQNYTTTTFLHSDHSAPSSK

[4] = test system: general behavior (Irwin profile); test: CNS safety pharmacology, general behavior (Irwin profile); type: in vivo, Rat: Sprague-Dawley
[5] = 2-week and 13-week repeated dose TK studies, monkey; type: in vivo; conditions: for emesis: 100 mg/kg/day
Procedure: In 2-week and 13-week repeated dose TK studies in monkey, animals were dosed orally at 10, 30 or 100 mg/kg/day (2-week study) or at 10, 30 or 60 mg/kg/day (13-week study). […] In the 2-week study, exposure increased roughly proportional to dose from 10 to 30 mg/kg/day on Days 1 and 14 and less than proportionally from 30 to 100 mg/kg/day on Days 1 and 14; emesis in the 100 mg/kg/day dose group, 6/6 animals on Day 1 and 5/6 animals on Day 14, may have contributed to this. There was little accumulation in any dose group from Day 1 to Day 14.

[6] = Solubility in aqueous solutions; type: physicochemical
[7] = test system: paclitaxel-induced neuropathy, allodynia; test: Reversing symptoms of paclitaxel-induced neuropathy; type: in vivo, Rat
[8] = target: T2, ganglionic receptor (α3β4) (Homo sapiens, UniProt P30926+P32297); test: Receptor binding ganglionic receptor, SH-SY5Y membranes
T2 construct: endogenous in cells
T2 sequence (P32297 32-505): as the sequence (P32297 32-505) above
T2 sequence (P30926 22-498): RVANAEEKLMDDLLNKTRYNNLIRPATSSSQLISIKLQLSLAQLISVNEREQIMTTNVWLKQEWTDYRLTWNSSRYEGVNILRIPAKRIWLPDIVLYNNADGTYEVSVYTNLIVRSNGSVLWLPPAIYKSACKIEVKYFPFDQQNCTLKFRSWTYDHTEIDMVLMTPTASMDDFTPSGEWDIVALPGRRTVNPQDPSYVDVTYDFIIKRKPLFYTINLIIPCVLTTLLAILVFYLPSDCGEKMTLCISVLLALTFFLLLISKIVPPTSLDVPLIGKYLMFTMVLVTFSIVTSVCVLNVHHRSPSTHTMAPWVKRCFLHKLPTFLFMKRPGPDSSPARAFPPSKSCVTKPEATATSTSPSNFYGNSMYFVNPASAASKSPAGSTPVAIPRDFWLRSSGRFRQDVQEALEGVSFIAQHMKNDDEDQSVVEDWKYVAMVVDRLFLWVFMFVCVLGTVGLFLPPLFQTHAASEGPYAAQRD

[9] = test system: arterial pressure, heart rate, ECG, body temperature; test: Cardiovascular safety, conscious telemetered monkeys po; type: in vivo, Monkey: Cynomologous; conditions: single oral doses 3, 10, 30 mg/kg
[10] = Single dose pharmacokinetics, mouse; type: in vivo, Swiss mouse; conditions: for half-life: po, 1 mg/kg
[11] = target: a4b4 (Homo sapiens, UniProt P30926+P43681); test: Receptor function a4b4, Ca++ flux; type: cell-based
Chain of a4b4 (P43681 29-627 limits assumed): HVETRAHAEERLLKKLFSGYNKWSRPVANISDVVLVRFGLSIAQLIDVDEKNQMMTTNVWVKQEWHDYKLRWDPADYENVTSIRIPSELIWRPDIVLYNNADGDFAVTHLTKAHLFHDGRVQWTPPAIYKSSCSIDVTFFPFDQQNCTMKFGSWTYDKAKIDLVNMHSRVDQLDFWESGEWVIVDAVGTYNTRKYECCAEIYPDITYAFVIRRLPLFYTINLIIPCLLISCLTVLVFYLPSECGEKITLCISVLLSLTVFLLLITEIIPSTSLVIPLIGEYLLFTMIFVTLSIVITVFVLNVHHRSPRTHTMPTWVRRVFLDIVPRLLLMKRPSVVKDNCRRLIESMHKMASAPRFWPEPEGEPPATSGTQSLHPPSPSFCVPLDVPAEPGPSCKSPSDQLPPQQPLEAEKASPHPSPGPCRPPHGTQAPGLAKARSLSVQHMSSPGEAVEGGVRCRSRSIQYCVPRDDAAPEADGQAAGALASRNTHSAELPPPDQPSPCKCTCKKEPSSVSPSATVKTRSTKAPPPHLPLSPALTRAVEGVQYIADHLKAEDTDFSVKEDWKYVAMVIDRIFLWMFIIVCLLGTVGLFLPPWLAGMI
Chain of a4b4 (P30926 22-498): as the sequence (P30926 22-498) above

[12] = target: high and low sensitivity alpha4beta2-containing NNR subtypes (Homo sapiens, UniProt P17787+P43681); test: Electrophysiology studies; type: cell-based
Chain of high and low sensitivity alpha4beta2-containing NNR subtypes (P43681 29-627 limits assumed): as the sequence (P43681 29-627 limits assumed) above
Chain of high and low sensitivity alpha4beta2-containing NNR subtypes (P17787 26-502): as the sequence (P17787 26-502) above
Source text: It is readily absorbed following oral administration and has favorable pharmacokinetics.

[13] = test system: cultured human peripheral blood lymphocytes; test: chromosome aberration assay; type: cell-based; conditions: in vitro
Source text: as §1

[14] = target: T3, human α3β2 (Homo sapiens, UniProt P17787+P32297); test: Receptor binding α3β2, recombinant human receptors in HEK cells; conditions: [3H]-S-nicotine, human α3β2 expressed in HEK cells
T3 construct: expressed in transfected cells
T3 sequence (P32297 32-505): as the sequence (P32297 32-505) above
T3 sequence (P17787 26-502): as the sequence (P17787 26-502) above

[15] = target: T4, muscarinic M4 (Homo sapiens, UniProt P08173); test: Follow-up dose response binding assay (CEREP)
T4 construct: CEREP (contract laboratory, per the earlier reading)
T4 sequence (P08173 whole entry): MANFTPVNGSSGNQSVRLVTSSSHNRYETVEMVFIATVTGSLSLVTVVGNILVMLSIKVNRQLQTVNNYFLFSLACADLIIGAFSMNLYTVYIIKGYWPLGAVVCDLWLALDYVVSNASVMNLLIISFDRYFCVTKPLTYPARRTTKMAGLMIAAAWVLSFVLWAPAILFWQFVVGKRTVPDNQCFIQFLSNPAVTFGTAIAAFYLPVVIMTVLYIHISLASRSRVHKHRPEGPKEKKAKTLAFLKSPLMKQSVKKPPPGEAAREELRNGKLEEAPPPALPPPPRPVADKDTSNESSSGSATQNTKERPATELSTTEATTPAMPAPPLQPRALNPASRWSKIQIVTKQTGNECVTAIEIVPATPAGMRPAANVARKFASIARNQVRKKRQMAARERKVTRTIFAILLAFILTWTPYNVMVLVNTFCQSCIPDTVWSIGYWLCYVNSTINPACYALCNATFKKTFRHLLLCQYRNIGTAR

[16] = test system: behavioral sensitization; test: CNS safety pharmacology, behavioral sensitization by motor activity; type: in vivo, Rat: Sprague-Dawley
[17] = 13-week repeat-dose oral toxicity in Cynomolgus monkeys; type: in vivo, Cynomolgus monkey; conditions: for AUC / Cmax: plasma, po, at the NOAEL (30 mg/kg); for incidence of mild interstitial vacuolization in the heart: 60 mg/kg
Procedure: Compound 1 was given to Cynomolgus monkeys once daily for at least 13 weeks via oral gavage at doses of 10, 30, or 60 mg/kg/day. At the end of the dosing period, 2 monkeys per sex in the high-dose and control dose groups were selected for a recovery of 4 weeks. […] In the surviving monkeys at 60 mg/kg/day, clinical observations included emesis, decreased motor activity, body weight loss, slight increases in QT (up to +16%), QTcB (up to +9.2%), and QTcF (up to +11%) intervals that were associated with slight decreases in heart rate. These findings had resolved by the end of the 4-week recovery period. […] At 30 mg/kg, all animals had emesis, but they had fewer episodes of emesis than the animals dosed at 60 mg/kg. The dose of 30 mg/kg was well tolerated and was considered the NOAEL, Cmax and AUC increased less than proportionally at doses between 10 and 30 mg/kg.

[18] = single-dose nasal spray tolerability and PK in rabbits; type: in vivo, New Zealand White rabbit; conditions: male rabbits
Procedure: The potential toxicity and TK of Compound 1 nasal spray was assessed following a single spray (100 μL) of either 2% or 5% Compound 1 in the right nostril of male New Zealand White rabbits (N=36). Phosphate buffered solution (PBS) served as the control and was sprayed (100 μL) in the left nostril. Bioanalytical and histopathological analyses were conducted at 1, 3, 6, 9, and 24 h post-treatment. Prior to sacrifice, the intranasal/nasal area of each animal was assessed using the Draize Classification System for Scoring Skin Irritation.

[19] = target: a6b3b4a5 (Homo sapiens, UniProt P30926+Q15825); test: Receptor binding a6b3b4a5
Chain of a6b3b4a5 (Q15825 26-494): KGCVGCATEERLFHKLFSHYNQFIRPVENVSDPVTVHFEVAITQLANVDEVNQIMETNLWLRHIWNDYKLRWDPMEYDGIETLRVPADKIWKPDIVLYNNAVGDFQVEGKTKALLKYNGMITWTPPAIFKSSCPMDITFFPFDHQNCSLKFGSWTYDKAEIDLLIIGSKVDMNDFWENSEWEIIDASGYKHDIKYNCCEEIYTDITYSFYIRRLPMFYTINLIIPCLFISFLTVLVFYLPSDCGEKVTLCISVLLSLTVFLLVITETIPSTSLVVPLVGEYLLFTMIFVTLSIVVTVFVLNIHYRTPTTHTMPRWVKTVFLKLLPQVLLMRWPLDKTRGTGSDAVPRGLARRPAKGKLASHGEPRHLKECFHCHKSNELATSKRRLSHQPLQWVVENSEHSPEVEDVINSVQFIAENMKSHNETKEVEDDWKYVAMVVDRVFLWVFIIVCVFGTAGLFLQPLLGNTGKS
Chain of a6b3b4a5 (P30926 22-498): as the sequence (P30926 22-498) above
Chain of a6b3b4a5 (Q05901 25-458 partner limits assumed): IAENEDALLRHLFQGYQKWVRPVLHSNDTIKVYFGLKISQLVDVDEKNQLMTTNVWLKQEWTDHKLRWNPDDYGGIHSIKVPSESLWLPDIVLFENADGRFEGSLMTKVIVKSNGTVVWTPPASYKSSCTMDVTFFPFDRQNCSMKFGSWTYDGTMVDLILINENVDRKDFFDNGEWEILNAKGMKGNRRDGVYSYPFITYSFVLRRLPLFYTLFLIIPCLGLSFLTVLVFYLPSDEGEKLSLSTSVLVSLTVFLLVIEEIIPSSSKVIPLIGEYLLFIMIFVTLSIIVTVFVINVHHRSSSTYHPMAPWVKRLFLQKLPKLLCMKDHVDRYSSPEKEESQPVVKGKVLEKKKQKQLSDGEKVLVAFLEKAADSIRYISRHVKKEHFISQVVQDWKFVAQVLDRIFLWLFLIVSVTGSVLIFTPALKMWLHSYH
Chain of a6b3b4a5 (P30532 23-468 partner): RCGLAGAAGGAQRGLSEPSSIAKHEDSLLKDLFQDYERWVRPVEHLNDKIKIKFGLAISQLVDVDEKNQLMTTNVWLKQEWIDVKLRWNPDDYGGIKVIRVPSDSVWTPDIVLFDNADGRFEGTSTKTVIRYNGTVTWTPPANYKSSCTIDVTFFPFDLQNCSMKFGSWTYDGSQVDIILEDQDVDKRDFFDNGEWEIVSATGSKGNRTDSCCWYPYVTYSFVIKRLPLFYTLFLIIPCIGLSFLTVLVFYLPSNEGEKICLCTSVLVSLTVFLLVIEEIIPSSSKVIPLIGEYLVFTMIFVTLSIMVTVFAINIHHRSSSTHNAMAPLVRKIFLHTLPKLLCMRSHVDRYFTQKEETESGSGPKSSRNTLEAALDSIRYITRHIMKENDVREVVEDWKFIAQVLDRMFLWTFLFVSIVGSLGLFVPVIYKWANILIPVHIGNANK

[20] = plasma, Swiss mouse, 1.0 mg/kg Compound 1, oral
[21] = female, cynomolgus monkey, females
[22] = surviving monkeys, 60 mg/kg/day

For `C(=C\[C@H]1CCNC1)/c1cncnc1` [Compound 1, (R)-5-((E)-2-pyrrolidin-3-ylvinyl)pyrimidine], the “mutagenicity, Ames test” value [1] was “negative”, the “lengthening of action potential duration” value ([2]; 30 μM) was 7% and the “lengthening of action potential duration” value ([2]; 100 μM) was 20%. The “resting membrane potential, action potential amplitude, Vmax” value ([2]; any concentration (3-100 μM)) was “no effect on resting membrane potential,”, the action potential duration ([2]; at 3 and 10 μM) was “no effect” and the action potential duration ([2]; at 30 and 100 μM, concentration dependent) was “dependent lengthening of the action”. For the same compound, the EC50 ([3]; Human a3b2, Ca++ Flux) was 8.7 µM, the Emax ([3]; Human a3b2, Ca++ Flux) was 66% and the agonist type ([3]; α3β2 subtype) was “partial agonist”. For the same compound, the “NOEL, general behavior (Irwin profile)” value ([4]; 15, 50, 150 mg/kg po) was “greater than 150 mg/kg”, the “effect on general behavior (Irwin profile)” value ([4]; po, doses up to and including 100 mg/kg) was “no noteworthy changes; also recorded: Compound 1 had no effect on general” and the emesis ([5]; Day 1, 2-week study) was 6/6. The emesis ([5]; Day 14, 2-week study) was 5/6, the Tmax ([5]; both sexes, cynomolgus, monkey, in vivo, oral 10-100 mg/kg/day, 2-week and 13-week studies) was 30 to 360 min and the accumulation ([5]; either study) was “Little to no accumulation”. For the same compound, the gender effect ([5]; either study) was “no gender effect”, the solubility ([6]; 0.1N HCl, simulated gastric fluid) was over 10000 µg/mL and the solubility ([6]; Water (pH 5.9)) was over 10000 µg/mL. For the same compound, the solubility ([6]; aqueous buffer, 0.1M citrate buffer (pH 4.0)) was over 10000 µg/mL, the solubility ([6]; aqueous buffer, 0.1M phosphate buffer (pH 6.8)) was over 10000 µg/mL and the “allodynia vs vehicle-treated group” value ([7]; 3 weeks post-dosing, only the 0.1 mg/kg dose) was “significantly different from vehicle”. For the same compound, the “allodynia vs vehicle-treated group” value ([7]; once daily po 0.01, 0.1, 1.0 mg/kg, all doses, 4 weeks post-paclitaxel dosing) was “at all doses significantly reduced”, the reversing tactile allodynia ([7]; paclitaxel-induced, 0.01-1 mg/kg p.o.) was “efficacious” and the Ki ([8]; Human ganglion-type (a3b4*), assay and tissue type not given) was 8.8 µM. For the same compound, the Ki ([8]; [3H]-epibatidine, SH-SY5Y membranes) was 0.6 µM and 0.62 µM, the “arterial pressure, heart rate, ECG parameters, body temperature” value [9] was “no noteworthy changes” and the “arterial pressure, heart rate, ECG parameters, body temperature” value ([9]; listed as TC6499) was “monkeys did not induce notable effects”. The Kp ([10]; Swiss, mouse, brain, oral, 1 mg/kg orally, read-out: brain exposure as share of plasma exposure) was about 0.3, the half-life ([10]; Swiss, mouse, plasma, 1 mg/kg orally, read-out: terminal elimination half-life (converted)) was about 30 min and the half-life ([10]; Swiss, mouse, plasma, Swiss mouse, 1.0 mg/kg Compound 1, oral, read-out: t1/2 (converted)) was 30 min. It also gave a Cmax [10, 20] of 15 ng/mL, a Tmax [10, 20] of 10 min and an AUC(0-t) ([10]; plasma, Swiss mouse, 1.0 mg/kg Compound 1, oral, t = 25 h, read-out: AUC0-1) of 10.1 ng·h/mL. For the same compound, the EC50 [11] was 4.3 µM, the Emax [11] was 98% and the “activity at high and low sensitivity alpha4beta2-containing NNR subtypes” value [12] was “agonist activity”. For the same compound, the “mutagenicity, chromosome aberration assay” value [13] was “negative”, the Ki [14] was 0.027 µM and the Ki [15] was 5.8 µM. For the same compound, the “interaction between Compound 1 and nicotine in behavioral sensitization” value ([16]; 30 mg/kg, 15 days cross-challenge) was “daily for 15 days indicated no interaction”, the “behavioral sensitization (motor activity)” value ([16]; Compound 1 3, 10, 30 mg/kg po) was “no noteworthy changes; also recorded: not associated with behavioral” and the NOAEL at 13 weeks ([17]; both sexes, cynomolgus monkey, in vivo, Cynomolgus monkeys, oral gavage once daily, 13 weeks) was 30 mg/kg. For the same compound, the AUC [17, 21] was 2440 ng·h/mL, the Cmax [17, 21] was 696 ng/mL and the “incidence of mild interstitial vacuolization in the heart” value ([17]; females) was 2 of 3. For the same compound, the AUC ([17]; male, cynomolgus monkey, males) was 1670 ng·h/mL, the Cmax ([17]; male, cynomolgus monkey, males) was 382 ng/mL and the “incidence of mild interstitial vacuolization in the heart” value ([17]; males) was 1 of 2. For the same compound, the “body weight loss vs. Day 1 value” ([17]; one monkey at 60 mg/kg/day sacrificed during the fourth week) was −22%, the “increase in QT interval” value [17, 22] was “up to +16%” and the “increase in QTcB interval” value [17, 22] was “up to +9.2%”. The “increase in QTcF interval” value [17, 22] was “up to +11%”, the “intranasal/nasal assessment (Draize)” value ([18]; single 100 μL spray of 2% or 5%) was “no signs of erythema, edema, eschar formation or discharge” and the clinical signs ([18]; single 100 μL spray of 2% or 5% in right nostril) was “No clinical signs were observed”. The “histopathology of the nasal cavity” value ([18]; single 100 μL spray of 2% or 5%, 1 to 24 h post-treatment) was “no macroscopic or microscopic findings” and the Ki [19] was 1.1 µM.
